Assay results as given in patent US11466024B2, “Bicylic compound acting as an inhibitor” (CHIA TAI TIANQING PHARMACEUTICAL GROUP CO., LTD., priority 2017, dated 2022).
Where two headings read alike, the source gives them in different places.

Key:
[1] = Pharmacokinetic evaluation in mice after single IV and PO administration; format: in vivo; set-up: AUC(0-t) / AUC(0-inf): concentration or dose not given beside the values; settings: Balb/c mice, plasma; for MRT inf: read-out: MRT0-inf; for MRT last: read-out: MRT0-last
Description: Balb/c mice (female, 15 to 30 g, 7- to 9-week old, Shanghai Lingchang) were used to test in vivo pharmacokinetics of compounds. The experimental method was as follows.
The pharmacokinetic characteristics of the compounds were tested by standard protocols after the compounds were administered to rodents by intravenous injection and oral administration. In the experiment, candidate compounds were formulated into clear solutions and administered to mice by a single intravenous injection and a single oral administration. The vehicle for intravenous injection (IV) was a mixed solvent of 5% of DMSO and 95% of 10% Cremophor EL, and the vehicle for oral administration (PO) was a mixed solvent of 1% tween 80, 9% PEG400 and 90% water. Whole blood samples within 48 hours were collected, and centrifuged at 3000 g at 4° C. for 15 minutes. The supernatant was separated to obtain the plasma sample, to which an acetonitrile solution containing an internal standard was added to precipitate the proteins, and the volume of the acetonitrile solution was 20 times that of the plasma sample. The supernatant was obtained by centrifugation, an equal volume of water was added thereto, and the mixture was centrifuged again to get the supernatant for sample injection. Plasma concentrations were quantitatively analyzed by an LC-MS/MS analytical method, and pharmacokinetic parameters, such as peak concentration, peak time, clearance rate, half-life, area under the concentration-time curve, and bioavailability, were calculated.
Of these, “10% Cremophor EL” referred to a deionized aqueous solution of Cremophor EL with a volume concentration of 10%. For example, taking the formulation of a 100 ml solution as an example, 10 ml Cremophor EL was taken and deionized water was added thereto, the mixture was well stirred, and then deionized water was added until the total volume was 100 ml. “Mixed solvent of 5% of DMSO and 95% of 10% Cremophor EL” referred to a mixed solvent comprised of DMSO and 10% Cremophor EL, in which […], and 10% Cremophor EL accounted for 95% of the volume of the mixed solvent. “Mixed solvent of 1% tween 80, 9% PEG400 and 90% water” meant that the volumes of tween 80, PEG400 and water accounted for 1%, 9% and 90% of the volume of the mixed solvent, respectively.

[2] = system: MOG35-55-induced experimental autoimmune encephalomyelitis (EAE); experiment: In vivo pharmacodynamic research on MOG35-55-induced experimental autoimmune encephalomyelitis (EAE) in mice; settings: G4, 75 mg/kg p.o. b.i.d
Description: The day of immunization was recorded as day 0, and the subsequent days were marked sequentially. Mice were anesthetized with isoflurane, and 100 μl of the emulsion was administered via subcutaneous injection at three sites (the middle part between shoulder and back, and two sides of the tail that were close to the groin), namely, 33 μl of the emulsion for each site. 0 hour and 48 hours after the injection of the emulsion, 200 ng (i.e. 200 μl) of the PTX solution was intraperitoneal injected. Mice in the normal group were not required to be immunized.
After the immunization on day 0, the immunized mice were randomly divided into 3 groups with 10 mice in each group according to the body weights except for the mice in the normal group, the details were shown in Table 1. FTY720 served as a positive drug, and a dose of […] was an effective dose commonly used in the EAE model.
The first group was normal mice without any treatment; vehicle was administered to the second group; FTY720 was administered to the third group at a dose of 0.5 mg/kg once a day; and the compound of Example 1 was administered to the fourth group at a dose of 75 mg/kg twice a day. The administration lasted for 25 days in total. The volume of intragastric administration was 10 ml/kg.
The day when animals were immunized was day 0. Animal body weights were recorded three times a week from day 0 to day 10, and the body weights and clinical scores of the animals were closely observed and recorded daily from day 11.
The experimental data was expressed as mean±standard error of mean (Mean±SEM).
The area under the curve of clinical scores over time (i.e. “AUC of clinical scores” or “area under the curve of clinical scores”) was calculated by analyzing the curve of clinical scores for each animal in each group, and the inhibition rates of the remaining groups (G1, G3, and G4) relative to G2 (solvent control group) were calculated by the mean AUC of clinical scores among groups.

Work on `CCS(=O)(=O)c1ccc(CNC(=O)c2cc3c(s2)C(C(C)C)N(C[C@H]2CC[C@H](C(F)(F)F)CC2)C3)nc1` (single isomer, unassigned) [Example 1] yielded an AUCExtra ([1]; IV) of 6.28%, an AUMCExtra ([1]; IV) of 27.8% and a Tlast ([1]; IV) of 24.0 h. It also gave an AUCExtra ([1]; PO) of 12.1%, an AUMCExtra ([1]; PO) of 41.3% and a Tlast ([1]; PO) of 24.0 h. The AUC(0-inf) ([1]; female, mouse, IV) was 3.92 µM·h, the AUC(0-t) ([1]; female, mouse, IV) was 3.67 µM·h and the C0 ([1]; female, mouse, IV) was 955 nM. It also gave a clearance ([1]; female, mouse, IV) of 7.62 mL/min/kg, a half-life ([1]; female, mouse, IV) of 6.84 h and an MRT inf ([1]; female, mouse, IV) of 7.66 h. It also gave an MRT last ([1]; female, mouse, IV) of 5.91 h, a Vd ([1]; female, mouse, IV, read-out: Vdss) of 3.5 L/kg and an AUC(0-inf) ([1]; female, mouse, PO) of 35.1 µM·h. The AUC(0-t) ([1]; female, mouse, PO) was 30.9 µM·h, the Cmax ([1]; female, mouse, PO) was 3520 nM and the Tmax ([1]; female, mouse, PO) was 1 h. For the same compound, the bioavailability ([1]; female, mouse, PO) was 89.7%, the half-life ([1]; female, mouse, PO) was 8.7 h and the MRT inf ([1]; female, mouse, PO) was 10.8 h. The MRT last ([1]; female, mouse, PO) was 7.19 h, the “clinical scores of EAE mice” value ([2]; 25 days, FIG. 1) was “significantly reduced” and the “inhibition rate of AUC of clinical scores relative to solvent control group” value ([2]; 25 days, p<0.0001, FIG. 2) was 93.2%. The “morbidity of EAE” value ([2]; at day 19, stable till the end of the experiment, FIG. 3) was 20%, the “body weights compared among groups” value ([2]; from the beginning to end, FIG. 4) was “the highest” and the body weight changes ([2]; significantly different from solvent control group, FIG. 4) was “kept increasing”.
